Data reported in patent US6686445B1, “Synthetic antineoplastic agents derived from dolastatin 15 and methods of making same” (Arizona Board of Regents, acting for and on behalf of …, priority 1997, dated 2004).
Where a SMILES comes first, the peptide text is derived from it. [ ]: non-standard residue; d: D form. The star is where a group is joined. NH(2-(2-pyridyl)ethyl) = c1ccc(CCN*)nc1; NH(4-Br-phenethyl) = Brc1ccc(CCN*)cc1; NMe2Val = CC(C)[C@@H](C(=O)*)N(C)C; X5 = O=[N+]([O-])c1ccc(CCN*)cc1; NHPhenethyl = c1ccc(CCN*)cc1; NMeV = CN[C@H](C(=O)O)C(C)C; Hiv = CC(C)[C@H](O)C(=O)O; X2 = c1ccc2ncc(N*)cc2c1; X4 = COc1ccc(CCN*)cc1OC; X3 = c1ccc2sc(N*)nc2c1; X7 = Clc1cccc(CCN*)c1; NHBn = c1ccc(CN*)cc1; X6 = Fc1ccc(CCN*)cc1; X8 = Clc1ccccc1CCN*

Experiments:
[1] = tested on: murine P388 lymphocytic leukemia cells; experiment: growth inhibition of murine P388 lymphocytic leukemia cells; assay type: cell-based; conditions: dosage inhibiting tumor cell growth by 50%
Description: (§1) All compounds synthesized were first evaluated for in vitro antitumor activity against murine P388 lymphocytic leukemia cells and against murine L1210 leukemia cells and human CA46 Burkitt lymphoma cells using techniques described by Hamel & Lin (see: HAMEL, E., and LIN, C. M., […], Interaction of combretastatin, a new plant-derived antimitotic agent, with tubulin, Biochemical Pharmacology, 32, 3864). The compounds were also evaluated in the NCI's human tumor 60-cell-line in intro primary screen as described by Monks et al. (see: MONKS, A., SCUDIERO, et al., 1991, New colorimetric cytotoxicity assay for anticancer drug screening, Journal of the National Cancer Institute, 83, 757). Data analyses were performed using methods described by Boyd and Paull (see: BOYD, M. R., et al., 1995, Some practical considerations and applications of the National Cancer Institute in vitro anticancer drug discovery screen, Drug Development Research, 34, 91). A tubulin polymerization inhibition assay was performed according to a modified version of the procedure used previously and described by Muzaffar et al. (see: MUZAFFAR, A., et al., 1990, Antitubulin effects of derivatives of 3-demethylthiocolchicine, methylthio esters of natural colchicinoids, and thioketones derived from thiocolchicine, Comparison with colchicine, Journal of Medicinal Chemistry, 33, 567) to evaluate the effects of dolastatin 15 on cellular microtubule assembly. The new assay for these compounds employed a drug-tubulin preincubation (15 min.) with 10 μM tubulin in 0.8 M glutamate at 30° C., followed by addition of GTP and incubation (20 min.) at 30° C., with tubulin polymerization monitored turbidimetrically in GILFORD recording spectrophotometers.

[2] = tested on: NCI 60-cell-line in vitro human tumor panel; conditions: read-out: Mean Panel GI50; mean ± S.D. of triplicate tests (* duplicate)
Description: as §1

[3] = tested on: murine L1210 leukemia cells; conditions: read-out: Mouse Leukemia L1210 IC50; cells counted after 24 hours of growth
Description: as §1

[4] = tested on: human CA46 Burkitt lymphoma cells; conditions: read-out: Human CA46 Burkitt Lymphoma IC50; cells counted after 20 hours
Description: as §1

[5] = tested on: human CA46 Burkitt lymphoma cells; experiment: mitotic arrest in drug-treated CA46 Burkitt cells; assay type: cell-based; conditions: 80 nM drug for 20 hours, control cells 3% mitotic
Description: To further verify the assumption that this entire series of compounds is acting intracellularly by interfering with tubulin function, the drug-treated Burkitt cells for mitotic arrest were analyzed.

Erwinia carotovora = experiment: antimicrobial disk susceptibility test; assay type: cell-based; conditions: twofold dilutions
Description: Antimicrobial disk susceptibility tests were performed according to the method established by the National Committee for Clinical Laboratory Standards (NCCLS, 1997). MUELLER-HINTON agar was used for susceptibility testing of Staphylococcus aureus, Enterococcus faecalis, Micrococcus luteus, Escherichia coli, Enterobacter cloacae, Bacillus subtilis, Pseudomonas aeruginosa, and Erwinia carotovora, Gonococcal Typing agar for Neisseria gonorrhoeae, and YM agar for Candida albicans and Cryptococcus neoformans. Immediately prior to susceptibility assays, compounds were reconstituted in sterile DMSO and twofold dilutions applied to sterile 6-mm disks. Zones of inhibition were read at 16 hours for bacterial cultures (except for M. luteus) and 42 hours for fungal cultures and M. luteus. MIC determinations were performed in duplicate.

tubulin = tubulin polymerization inhibition, 0.8 M glutamate at 30° C.; assay type: biochemical; conditions: read-out: tubulin assembly IC50
Description: as §1
Since these high molecular weight polymers, like microtubules, scatter light, they make it impossible to quantify drug effects by turbidimetry or centrifugation. […] (no MgCl2 added to reactions).

Row | Structure (SMILES) | Mouse Leukemia P388 ED50 [1] [ng/mL] | GI50 [2] [nM] | IC50 [3] [nM] | IC50 [4] [nM] | % Mitotic Cells [5] [%] | Minimum inhibitory concentration, Erwinia carotovora (Erwinia carotovora) | IC50 (tubulin) [nM]
1 | CC(C)[C@H](NC(=O)[C@H](C(C)C)N(C)C)C(=O)N(C)[C@H](C(=O)N1CCC[C@H]1C(=O)N1CCC[C@H]1C(=O)O[C@H](C(=O)NCc1ccccc1)C(C)C)C(C)C [Compound 12b] (NMe2Val-V[NMeV]PP[Hiv]-NHBn) | 0.42 | 0.79 ± 0.1 | 1 | 0.3 | 46 | 50-100 μg/disk | 
2 | CC(C)[C@H](NC(=O)[C@H](C(C)C)N(C)C)C(=O)N(C)[C@H](C(=O)N1CCC[C@H]1C(=O)N1CCC[C@H]1C(=O)O[C@H](C(=O)NCCc1ccc(Br)cc1)C(C)C)C(C)C [Compound 12h] (NMe2Val-V[NMeV]PP[Hiv]-{NH(4-Br-phenethyl)}) | 0.36 | 0.81 ± 0.15 | 2 | 2 | 48 |  | 
3 | CC(C)[C@H](NC(=O)[C@H](C(C)C)N(C)C)C(=O)N(C)[C@H](C(=O)N1CCC[C@H]1C(=O)N1CCC[C@H]1C(=O)O[C@H](C(=O)NCCc1ccccc1)C(C)C)C(C)C [Compound 12c, N-[(2S)-O-[(N,N-Dimethyl-valyl)-valyl-(N-methyl-valyl)-prolyl-prolyl]-2-hydroxyisovalerlyl]-2-phenethylamide] (NMe2Val-V[NMeV]PP[Hiv]-NHPhenethyl) | 0.26 | 1.06 ± 0.48 | 2 | 0.3 | 45 | 50-100 μg/disk | 
4 | COC(=O)[C@H](Cc1ccccc1)NC(=O)[C@@H](OC(=O)[C@@H]1CCCN1C(=O)[C@@H]1CCCN1C(=O)[C@H](C(C)C)N(C)C(=O)[C@@H](NC(=O)[C@H](C(C)C)N(C)C)C(C)C)C(C)C [Compound 12m] (NMe2Val-V[NMeV]PP[Hiv]F-OMe) | 0.54 | 3.76 ± 1.05 | 3 | 1 | 40 | 50-100 μg/disk | 
5 | CC(C)[C@H](NC(=O)[C@H](C(C)C)N(C)C)C(=O)N(C)[C@H](C(=O)N1CCC[C@H]1C(=O)N1CCC[C@H]1C(=O)O[C@H](C(=O)Nc1nc2ccccc2s1)C(C)C)C(C)C [Compound 12q] (NMe2Val-V[NMeV]PP[Hiv]-X3) | 0.45 | 2.54 | 3 | 2 | 36 | 50-100 μg/disk | 
6 | CC(C)[C@H](NC(=O)[C@H](C(C)C)N(C)C)C(=O)N(C)[C@H](C(=O)N1CCC[C@H]1C(=O)N1CCC[C@H]1C(=O)O[C@H](C(=O)NCCc1cccc(Cl)c1)C(C)C)C(C)C [Compound 12f] (NMe2Val-V[NMeV]PP[Hiv]-X7) | 0.37 | 0.83 ± 0.41 | 4 | 2 | 38 |  | 
7 | COc1ccc(CCNC(=O)[C@@H](OC(=O)[C@@H]2CCCN2C(=O)[C@@H]2CCCN2C(=O)[C@H](C(C)C)N(C)C(=O)[C@@H](NC(=O)[C@H](C(C)C)N(C)C)C(C)C)C(C)C)cc1OC [Compound 12j] (NMe2Val-V[NMeV]PP[Hiv]-X4) | 0.40 | 1.5 ± 0.58 | 2 | 0.8 | 31 | 50-100 μg/disk | 
8 | CC(C)[C@H](NC(=O)[C@H](C(C)C)N(C)C)C(=O)N(C)[C@H](C(=O)N1CCC[C@H]1C(=O)N1CCC[C@H]1C(=O)O[C@H](C(=O)NCCc1ccccn1)C(C)C)C(C)C [Compound 12k] (NMe2Val-V[NMeV]PP[Hiv]-{NH(2-(2-pyridyl)ethyl)}) | 0.40 | 3 ± 1.04 | 4 | 2 | 30 | 50-100 μg/disk | 
9 | COC(=O)[C@H](CCSC)NC(=O)[C@@H](OC(=O)[C@@H]1CCCN1C(=O)[C@@H]1CCCN1C(=O)[C@H](C(C)C)N(C)C(=O)[C@@H](NC(=O)[C@H](C(C)C)N(C)C)C(C)C)C(C)C [Compound 12n] (NMe2Val-V[NMeV]PP[Hiv]M-OMe) | 0.55 | 2.93 ± 0.93 | 3 | 3 | 44 |  | 
10 | CC(C)[C@H](NC(=O)[C@H](C(C)C)N(C)C)C(=O)N(C)[C@H](C(=O)N1CCC[C@H]1C(=O)N1CCC[C@H]1C(=O)O[C@H](C(=O)NCCc1ccc([N+](=O)[O-])cc1)C(C)C)C(C)C [Compound 12i] (NMe2Val-V[NMeV]PP[Hiv]-X5) | 0.60 | 0.94 ± 0.41 | 4 | 3 | 36 |  | 
11 | CC(C)[C@H](NC(=O)[C@H](C(C)C)N(C)C)C(=O)N(C)[C@H](C(=O)N1CCC[C@H]1C(=O)N1CCC[C@H]1C(=O)NCc1ccccc1)C(C)C [LU103793, N-dimethyl-L-valyl-L-valyl-N-methyl-L-valyl-L-prolyl-L-prolyl-benzamide] (NMe2Val-V[NMeV]PP-NHBn) |  |  |  |  |  |  | 4000 ± 600
12 | CC(C)[C@H](NC(=O)[C@H](C(C)C)N(C)C)C(=O)N(C)[C@H](C(=O)N1CCC[C@H]1C(=O)N1CCC[C@H]1C(=O)O[C@H](C(=O)NCCc1ccc(F)cc1)C(C)C)C(C)C [Compound 12d] (NMe2Val-V[NMeV]PP[Hiv]-X6) | 0.55 | 0.89 ± 0.29 | 4 | 0.8 | 46 |  | 
13 | COC(=O)[C@@H]1CCCN1C(=O)[C@@H](OC(=O)[C@@H]1CCCN1C(=O)[C@@H]1CCCN1C(=O)[C@H](C(C)C)N(C)C(=O)[C@@H](NC(=O)[C@H](C(C)C)N(C)C)C(C)C)C(C)C [Compound 12o] (NMe2Val-V[NMeV]PP[Hiv]P-OMe) | 3.1 | 4.48 ± 0.44 | 4 | 2 | 42 |  | 
14 | CC(C)[C@H](NC(=O)[C@H](C(C)C)N(C)C)C(=O)N(C)[C@H](C(=O)N1CCC[C@H]1C(=O)N1CCC[C@H]1C(=O)O[C@H](C(=O)Nc1cnc2ccccc2c1)C(C)C)C(C)C [Compound 12r] (NMe2Val-V[NMeV]PP[Hiv]-X2) | 0.29 | 2.31 | 2 | 2 | 42 | 50-100 μg/disk | 
15 | CC(C)[C@H](NC(=O)[C@H](C(C)C)N(C)C)C(=O)N(C)[C@H](C(=O)N1CCC[C@H]1C(=O)N1CCC[C@H]1C(=O)O[C@H](C(=O)NCCc1ccccc1Cl)C(C)C)C(C)C [Compound 12g] (NMe2Val-V[NMeV]PP[Hiv]-X8) | 0.33 | 0.81 ± 0.31 | 4 | 2 | 26 |  | 
